We go through nine molecules from ChEMBL document CHEMBL1201862, “PubChem BioAssay data set” (2004).

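All cell lines were grown in 96-well plates and treated with compound for 48 hours. At the GI50, growth is halved.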 Activity calls are given as the source filed them. No stated cut-off is given here; in the data, active = GI50 up to about 1.1 µM and inactive = higher. Non-standard residues stand in square brackets, D forms with d. Residues, ends and D or L forms follow the SMILES beside them. ξ: configuration not given here. Pen = CC(C)(S)[C@H](N)C(=O)O; ξL = CC(C)CC(N)C(=O)O

Some test systems named below: EKVX; OVCAR-5; HOP-18; CAKI-1; NCI-H226; ACHN; HCC 2998; NCI-H460; OVCAR-8; SNB-75; UACC-62; SF-295; OVCAR-4; SNB-78; HCT-116; DMS-273.
Experiment in all cases: DTP human tumour cell line panel, 48 h

The GI50 is the concentration at which growth is held to half of that of the control. For the molecule `C=CC1(c2ccccc2Cl)N/C(=C/OCC)CO1` (stereo not drawn), the GI50 in the assay with EKVX, in the assay on OVCAR-5, in the assay with HOP-18, with CAKI-1, with NCI-H226 and in the assay with ACHN was > 100 µM (inactive) each time. Further, the GI50 in the assay on HCC 2998 is > 100 µM (inactive); with NCI-H460 it was > 100 µM (inactive); in the assay on OVCAR-8 it was > 100 µM (inactive); in the assay with SNB-75 it was 36.6 µM (inactive); with UACC-62, > 100 µM (inactive); in the assay with SF-295, > 100 µM (inactive). Also, the GI50 in the assay with OVCAR-4 was > 100 µM (inactive); with SNB-78, > 100 µM (inactive); in the assay on HCT-116, 90.2 µM (inactive); with DMS-273 it was > 100 µM (inactive).

For the molecule `CSCC[C@H](NC(=O)C(CC(C)C)NC(=O)[C@H](Cc1c[nH]cn1)NC(=O)CNC(=O)[C@@H](NC(=O)[C@@H](C)NC(=O)[C@H](Cc1c[nH]c2ccccc12)NC(=O)[C@H](CCC(N)=O)NC(=O)[C@@H](N)CC(N)=O)C(C)(C)SC)C(N)=O` (stereo partly drawn) (H-NQW[dA][Pen](Me)GH[ξL]M-NH2), the GI50 in the assay with EKVX, in the assay with OVCAR-5, with HOP-18, in the assay on CAKI-1, in the assay with NCI-H226 and in the assay on HCC 2998 was > 100 µM (inactive) each time. Moreover, the GI50 in the assay with NCI-H460, with OVCAR-8, in the assay with SNB-75, in the assay on UACC-62, in the assay with SF-295 and with OVCAR-4 was > 100 µM (inactive) each time. The GI50 in the assay on SNB-78, with HCT-116 and in the assay on DMS-273 was > 100 µM (inactive) in each case.

With `C[n+]1[se]c2ccccc2c1Cl`, the GI50 is 24.1 µM (inactive) in the assay on EKVX; > 52.1 µM (inactive) in the assay with OVCAR-5; 20.7 µM (inactive) in the assay on HOP-18; > 41.8 µM (inactive) with CAKI-1; 25.6 µM (inactive) in the assay with NCI-H226; > 48.8 µM (inactive) in the assay on ACHN. For the same molecule, the GI50 with HCC 2998 was > 47.8 µM (inactive); in the assay on NCI-H460 it was 35.3 µM (inactive); with OVCAR-8, 45 µM (inactive); in the assay on SNB-75 it was 17.6 µM (inactive); in the assay with UACC-62, 17.7 µM (inactive); in the assay on SF-295, 21.7 µM (inactive). Moreover, the GI50 in the assay on OVCAR-4 is 31 µM (inactive); with SNB-78 it was 27.8 µM (inactive); with HCT-116, 16.9 µM (inactive); with DMS-273, 20 µM (inactive).

Consider `CN(C)CCOc1cc2c(c3ccccc13)-c1ccccc1C2=O`, for which the GI50 in the assay on EKVX was 4.91 µM (inactive); with OVCAR-5 it was 2.47 µM (inactive); in the assay with HOP-18 it was 2.07 µM (inactive); in the assay on CAKI-1, 0.388 µM (active); with NCI-H226 it was 1.95 µM (inactive); in the assay with HCC 2998, 1.75 µM (inactive). The GI50 in the assay on NCI-H460 was 0.675 µM (active); in the assay on OVCAR-8, 0.895 µM (active); in the assay with SNB-75, 1.8 µM (inactive); in the assay with UACC-62 it was 1.8 µM (inactive); with SF-295, 1.71 µM (inactive); with OVCAR-4, 1.12 µM (active). In addition, the GI50 in the assay on SNB-78 was 6.03 µM (inactive); with HCT-116, 1.03 µM (active); with DMS-273, 0.531 µM (active).

With `Cc1cc(O)c2c(c1O)C(=O)C13C(=C(O)C4C(O)C1C1C(O)C3C(O)=C3C(=O)c5c(O)cc(C)c(O)c5C(=O)C341)C2=O` (stereo not drawn), the GI50 was 0.0845 µM (active) with EKVX; 0.778 µM (active) with OVCAR-5; 0.0615 µM (active) in the assay with HOP-18; 0.209 µM (active) in the assay with CAKI-1; 0.199 µM (active) in the assay with NCI-H226; 0.032 µM (active) in the assay on HCC 2998. For the same molecule, the GI50 is 0.0348 µM (active) in the assay on NCI-H460; 0.0615 µM (active) in the assay on OVCAR-8; 0.0499 µM (active) in the assay on SNB-75; 0.0489 µM (active) in the assay on UACC-62; 0.03 µM (active) with SF-295; 0.385 µM (active) in the assay with OVCAR-4. Further, the GI50 in the assay on SNB-78 is 0.0803 µM (active); in the assay on HCT-116 it was 0.0342 µM (active); with DMS-273, 0.0962 µM (active).

With `CC(=O)OCC1OC(Nc2ncc(-c3ccc(C)cc3)s2)C(OC(C)=O)C(OC(C)=O)C1OC(C)=O` (stereo not drawn), the GI50 was 54 µM (inactive) in the assay on EKVX; 38.1 µM (inactive) in the assay with OVCAR-5; 35.8 µM (inactive) in the assay with HOP-18; 29 µM (inactive) with CAKI-1; 25.2 µM (inactive) with NCI-H226; 23.3 µM (inactive) in the assay with HCC 2998. Further, the GI50 with NCI-H460 was 31.5 µM (inactive); in the assay with OVCAR-8, 39.7 µM (inactive); in the assay on SNB-75, 39 µM (inactive); in the assay with UACC-62 it was 27 µM (inactive); in the assay on SF-295, 43.2 µM (inactive); in the assay with OVCAR-4 it was 27 µM (inactive). For the same molecule, the GI50 in the assay with SNB-78 is 40.8 µM (inactive); with HCT-116, 26.6 µM (inactive); in the assay with DMS-273, > 58.9 µM (inactive).

`CCOC(=O)CNC(=O)NC12CC3CC(CC(C3)C1)C2`: the GI50 with EKVX is 191 µM (inactive); in the assay with OVCAR-5, 432 µM (inactive); in the assay with HOP-18 it was 161 µM (inactive); in the assay with CAKI-1, 169 µM (inactive); with NCI-H226 it was 203 µM (inactive); in the assay on HCC 2998, 142 µM (inactive). In addition, the GI50 with NCI-H460 was 136 µM (inactive); in the assay with OVCAR-8, 490 µM (inactive); in the assay with SNB-75, 110 µM (inactive); in the assay on UACC-62, 125 µM (inactive); in the assay on SF-295, 322 µM (inactive); with OVCAR-4, 294 µM (inactive). For the same molecule, the GI50 in the assay on SNB-78 is 221 µM (inactive); in the assay with HCT-116 it was 156 µM (inactive); with DMS-273, 223 µM (inactive).

As to `c1ccc2c(c1)SCCc1cn[nH]c1-2`, the GI50 in the assay on EKVX was > 100 µM (inactive); in the assay with OVCAR-5, > 100 µM (inactive); in the assay with HOP-18, > 100 µM (inactive); in the assay on CAKI-1, > 100 µM (inactive); in the assay on NCI-H226 it was 24.7 µM (inactive); in the assay on HCC 2998, > 100 µM (inactive). Also, the GI50 in the assay on NCI-H460 is > 100 µM (inactive); with OVCAR-8, > 100 µM (inactive); with SNB-75, > 92.5 µM (inactive); in the assay on UACC-62, > 100 µM (inactive); in the assay on SF-295, > 100 µM (inactive); with OVCAR-4 it was > 100 µM (inactive). The GI50 with SNB-78, with HCT-116 and in the assay with DMS-273 was > 100 µM (inactive) each time.

For the molecule `COC(=O)C(/C(=N/NC(N)=S)C(=O)Nc1ccccc1[N+](=O)[O-])c1cnc2ccccc2n1` (stereo not drawn), the GI50 in the assay with EKVX, in the assay on OVCAR-5, in the assay on HOP-18, in the assay on CAKI-1, with NCI-H226 and in the assay on ACHN was > 100 µM (inactive) each time. For the same molecule, the GI50 with HCC 2998, in the assay with NCI-H460, in the assay on OVCAR-8, in the assay with SNB-75, in the assay with UACC-62 and in the assay on SF-295 was > 100 µM (inactive) each time. For the same molecule, the GI50 in the assay on OVCAR-4, in the assay on SNB-78, with HCT-116 and in the assay on DMS-273 was > 100 µM (inactive) each time.
